For one test, the target named is T1, M4 muscarinic receptor (Homo sapiens, UniProt P08173).
T1 construct: expressed in transfected cells; host or cells: CHO (M4-CHO)
T1 sequence (P08173 1-479): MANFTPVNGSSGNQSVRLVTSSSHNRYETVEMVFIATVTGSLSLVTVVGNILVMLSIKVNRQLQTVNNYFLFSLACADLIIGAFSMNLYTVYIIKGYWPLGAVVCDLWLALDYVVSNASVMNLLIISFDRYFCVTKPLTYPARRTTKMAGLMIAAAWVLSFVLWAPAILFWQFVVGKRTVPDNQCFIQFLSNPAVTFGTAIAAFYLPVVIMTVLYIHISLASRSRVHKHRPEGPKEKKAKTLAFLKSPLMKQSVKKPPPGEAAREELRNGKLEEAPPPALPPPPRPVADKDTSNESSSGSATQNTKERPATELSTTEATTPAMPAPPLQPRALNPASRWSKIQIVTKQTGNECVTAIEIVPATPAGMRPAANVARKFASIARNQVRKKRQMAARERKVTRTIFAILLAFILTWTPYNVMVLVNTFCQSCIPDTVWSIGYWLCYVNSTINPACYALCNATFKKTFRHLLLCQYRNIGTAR
The experiment in a line: Functional mobilization of intracellular calcium (FLIPR) in M4-CHO cells. The class given is cell-based. To be noted: Table 4; for Emax: 100% efficacy is the maximum response obtained with the Carbachol control; for M4 Activity: modulating M4 receptor. In a few lines: (§1)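 FLIPR Ca2+ read, ex 488/em 540 nm, 60 s. Recombinant CHO lines (M1 or M4), dye-loaded Fluo-3 AM 60-90 min at 37° C, probenecid 1 mM, pH 7.4. Agonist: compound alone; inhibition: 15 min compound pre-incubation, then carbachol at EC80 for that subtype.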

The target in the next test is T2, M1 muscarinic receptor (Homo sapiens, UniProt P11229).
T2 construct: expressed in transfected cells; host or cells: CHO (M1-CHO)
T2 sequence (P11229 1-460): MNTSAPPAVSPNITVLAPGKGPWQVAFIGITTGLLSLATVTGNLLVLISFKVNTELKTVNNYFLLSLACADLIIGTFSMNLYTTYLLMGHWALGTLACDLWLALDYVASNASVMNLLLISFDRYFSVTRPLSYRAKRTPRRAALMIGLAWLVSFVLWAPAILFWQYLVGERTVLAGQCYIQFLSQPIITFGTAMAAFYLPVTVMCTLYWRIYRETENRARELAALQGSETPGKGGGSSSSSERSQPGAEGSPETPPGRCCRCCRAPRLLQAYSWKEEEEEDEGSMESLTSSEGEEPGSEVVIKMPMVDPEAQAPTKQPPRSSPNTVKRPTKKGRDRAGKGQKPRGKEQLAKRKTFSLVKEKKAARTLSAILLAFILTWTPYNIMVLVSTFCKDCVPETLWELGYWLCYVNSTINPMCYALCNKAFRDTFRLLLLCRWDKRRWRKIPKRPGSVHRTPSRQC
Kind of test: Functional mobilization of intracellular calcium (FLIPR) in M1-CHO cells. As to conditions: Table 4; for Emax: 100% efficacy is the maximum response obtained with the Carbachol control; for M1 Activity: modulating M1 receptor. Format: cell-based. In a few lines:
as §1

The results in this text go back to patent US7786141B2 (Vertex Pharmaceuticals Incorporated, priority 2004, dated 2010).

As to `CC(=O)N1CC2(CCN(CC3CCOCC3)CC2)c2cc(F)ccc21` [compound 644], on M4 muscarinic receptor, the Emax is below 25% and the “M4 Activity” value is recorded as “x (activity was measured to be greater than 5.0 μM)”. Moreover, on M1 muscarinic receptor, the Emax was below 25% and the “M1 Activity” value was “x (activity was measured to be greater than 5.0 μM)”.

Regarding `CCC#CCOC(=O)N1CC[C@@H](CN2CCC3(CC2)CN(C(=O)N(C)C)c2ccc(F)cc23)C1` [compound 645], at M4 muscarinic receptor, the Emax was in the range of 25 to 100% and the “M4 Activity” value was “xxx (activity was measured to be less than 2.0 μM)”. Besides, on M1 muscarinic receptor, the maximal effect (Emax) lay in the range of 25 to 100% and the “M1 Activity” value was “xxx (activity was measured to be less than 2.0 μM)”.

With `CC(=O)N[C@H]1CCC2(CCN(C3CCC(C(C)(C)C)CC3)CC2)c2ccccc21` (stereo partly drawn) [compound 646], on M4 muscarinic receptor, the maximal response (Emax) was below 25% and the “M4 Activity” value is “x (activity was measured to be greater than 5.0 μM)”. Also, on M1 muscarinic receptor, the maximal effect (Emax) is 25 to 100% and the “M1 Activity” value is “xxx (activity was measured to be less than 2.0 μM)”.

Regarding `O=C1CCCN1[C@H]1CCC2(CCN(CC3CCCCC3)CC2)c2ccccc21` [compound 647], on M4 muscarinic receptor, the maximal effect (Emax) is 25 to 100% and the “M4 Activity” value was “xxx (activity was measured to be less than 2.0 μM)”. Moreover, at M1 muscarinic receptor, the maximum response (Emax) lay in the range of 25 to 100% and the “M1 Activity” value is given as “xxx (activity was measured to be less than 2.0 μM)”.

Consider `CCOC(=O)N1CCC(N2CCC3(CC2)CN(C(C)=O)c2ccc(-c4cccc(OC)c4)cc23)CC1` [compound 648], for which, on M4 muscarinic receptor, the Emax is below 25% and the “M4 Activity” value is listed as “x (activity was measured to be greater than 5.0 μM)”. Also, on M1 muscarinic receptor, the maximum response (Emax) is 25 to 100%; the “M1 Activity” value was “xx (activity was measured to be between 2.0 μM and 5.0 μM)”.

In the case of `CN(C)C(=O)N1CC2(CCN(C3CCN(C(=O)c4cccs4)CC3)CC2)c2cc(F)ccc21` [compound 649], on M4 muscarinic receptor, the Emax is below 25% and the “M4 Activity” value is listed as “xxx (activity was measured to be less than 2.0 μM)”. For the same compound, at M1 muscarinic receptor, the Emax lay within 25 to 100% and the “M1 Activity” value is “xxx (activity was measured to be less than 2.0 μM)”.

As for `O=C(N[C@H]1CC2(CCN([C@@H]3CC4CC[C@@H]3C4)CC2)c2ccccc21)C1CC1` [compound 650], on M4 muscarinic receptor, the Emax was in the range of 25 to 100% and the “M4 Activity” value was “xxx (activity was measured to be less than 2.0 μM)”. For the same compound, at M1 muscarinic receptor, the Emax was 25 to 100% and the “M1 Activity” value is “xxx (activity was measured to be less than 2.0 μM)”.

Take `CN(C)C(=O)N1CC2(CCN(C[C@H]3CCN(C(=O)OCC4CC4)C3)CC2)c2cc(F)ccc21` [compound 651]: at M4 muscarinic receptor, the maximal effect (Emax) fell in the range of 25 to 100% and the “M4 Activity” value is on record as “xxx (activity was measured to be less than 2.0 μM)”. Moreover, on M1 muscarinic receptor, the Emax lay within 25 to 100% and the “M1 Activity” value is recorded as “xxx (activity was measured to be less than 2.0 μM)”.

With `CC(=O)N[C@H]1CCC2(CCN(C[C@H]3C[C@H]4C=CC3C4)CC2)c2ccccc21` [compound 652], at M4 muscarinic receptor, the maximum response (Emax) lay in the range of 25 to 100% and the “M4 Activity” value is “xxx (activity was measured to be less than 2.0 μM)”. In addition, at M1 muscarinic receptor, the Emax is 25 to 100% and the “M1 Activity” value is “xxx (activity was measured to be less than 2.0 μM)”.

For the compound `CCOC(=O)N1CCC(N2CCC3(CC2)CN(C(C)=O)c2c(-c4ccc(C(F)(F)F)cc4)cccc23)CC1` [compound 653], on M4 muscarinic receptor, the maximal response (Emax) lay in the range of 25 to 100% and the “M4 Activity” value is given as “x (activity was measured to be greater than 5.0 μM)”. Besides, on M1 muscarinic receptor, the maximum response (Emax) is 25 to 100% and the “M1 Activity” value is “x (activity was measured to be greater than 5.0 μM)”.

Take `CC(=O)N[C@H]1CCC2(CCN(CC3CC4CCC3C4)CC2)c2ccccc21` (stereo partly drawn) [compound 655]: at M4 muscarinic receptor, the maximum response (Emax) is 25 to 100% and the “M4 Activity” value is reported as “xxx (activity was measured to be less than 2.0 μM)”. Besides, at M1 muscarinic receptor, the maximum response (Emax) fell in the range of 25 to 100% and the “M1 Activity” value is given as “xxx (activity was measured to be less than 2.0 μM)”.

Regarding `CCC#CCOC(=O)N1CCC(N2CCC3(CC2)CN(C(C)=O)c2ccccc23)CC1` [compound 656], on M4 muscarinic receptor, the Emax was 25 to 100% and the “M4 Activity” value was “xxx (activity was measured to be less than 2.0 μM)”. Further, on M1 muscarinic receptor, the Emax lay in the range of 25 to 100% and the “M1 Activity” value is recorded as “xxx (activity was measured to be less than 2.0 μM)”.

For `c1ccc2c(c1)CCCC21CCN(C2C[C@@H]3CC[C@@H](C2)C3)CC1` (stereo partly drawn) [compound 657], on M4 muscarinic receptor, the maximal effect (Emax) is 25 to 100% and the “M4 Activity” value is on record as “xxx (activity was measured to be less than 2.0 μM)”. Further, on M1 muscarinic receptor, the Emax was in the range of 25 to 100%; the “M1 Activity” value was “xx (activity was measured to be between 2.0 μM and 5.0 μM)”.

`COCCOC(=O)N1CCC(N2CCC3(CC2)CN(CCOC)c2ccc(F)cc23)CC1` [compound 658]: on M4 muscarinic receptor, the Emax lay within 25 to 100% and the “M4 Activity” value is reported as “xxx (activity was measured to be less than 2.0 μM)”. For the same compound, at M1 muscarinic receptor, the Emax lay in the range of 25 to 100% and the “M1 Activity” value is reported as “xxx (activity was measured to be less than 2.0 μM)”.

Turning to `Cc1cnc(C)c(N2CCC(N3CCC4(CC3)CN(C(=O)N(C)C)c3ccc(F)cc34)CC2)n1` [compound 659], at M4 muscarinic receptor, the maximal response (Emax) fell in the range of 25 to 100% and the “M4 Activity” value is reported as “xxx (activity was measured to be less than 2.0 μM)”. Moreover, at M1 muscarinic receptor, the Emax was in the range of 25 to 100% and the “M1 Activity” value is given as “xxx (activity was measured to be less than 2.0 μM)”.

For the compound `CN(C)C(=O)N1CC2(CCN(C[C@H]3CCN(c4cnccn4)C3)CC2)c2cc(F)ccc21` [compound 660], at M4 muscarinic receptor, the maximal effect (Emax) was above 100% and the “M4 Activity” value was “xxx (activity was measured to be less than 2.0 μM)”. In addition, at M1 muscarinic receptor, the Emax was above 100% and the “M1 Activity” value is reported as “xxx (activity was measured to be less than 2.0 μM)”.

On to `CCOC(=O)N1CCC(N2CCC3(CC2)CN(C(C)=O)c2c(-c4ccccc4F)cccc23)CC1` [compound 661], for which, at M4 muscarinic receptor, the maximum response (Emax) was below 25% and the “M4 Activity” value is “x (activity was measured to be greater than 5.0 μM)”. On M1 muscarinic receptor, the Emax was 25 to 100% and the “M1 Activity” value is given as “x (activity was measured to be greater than 5.0 μM)”.

Turning to `C[C@H](O)CC(=O)N1CCC(N2CCC3(CC2)CN(C(=O)N(C)C)c2ccc(F)cc23)CC1` [compound 662], at M4 muscarinic receptor, the Emax was in the range of 25 to 100%; the “M4 Activity” value was “xx (activity was measured to be between 2.0 μM and 5.0 μM)”. Further, on M1 muscarinic receptor, the maximal response (Emax) lay within 25 to 100% and the “M1 Activity” value is on record as “x (activity was measured to be greater than 5.0 μM)”.

For the compound `O=C(N[C@H]1CCC2(CCN(C3CCCCCC3)CC2)c2ccccc21)C1CC1` [compound 663], at M4 muscarinic receptor, the Emax was in the range of 25 to 100% and the “M4 Activity” value is reported as “xxx (activity was measured to be less than 2.0 μM)”. On M1 muscarinic receptor, the maximum response (Emax) was 25 to 100% and the “M1 Activity” value was “xxx (activity was measured to be less than 2.0 μM)”.

Turning to `CCOC(=O)N1C2CCC1CC(N1CCC3(CC[C@H](NC(=O)C4CC4)c4ccccc43)CC1)C2` (stereo partly drawn) [compound 664], on M4 muscarinic receptor, the Emax is 25 to 100% and the “M4 Activity” value is reported as “xxx (activity was measured to be less than 2.0 μM)”. Moreover, on M1 muscarinic receptor, the Emax lay within 25 to 100% and the “M1 Activity” value is “xxx (activity was measured to be less than 2.0 μM)”.

In the case of `CC(C)C(=O)N1CCC(N2CCC3(CC2)CN(C(=O)N(C)C)c2ccc(F)cc23)CC1` [compound 665], on M4 muscarinic receptor, the maximal response (Emax) is below 25% and the “M4 Activity” value is recorded as “x (activity was measured to be greater than 5.0 μM)”. For the same compound, on M1 muscarinic receptor, the Emax lay within 25 to 100% and the “M1 Activity” value was “x (activity was measured to be greater than 5.0 μM)”.
